The values below come from US20260209249A1, “NOVEL TRICYCLIC COMPOUND AS KRAS G12D INHIBITOR, AND USE THEREOF” (SK Biopharmaceuticals Co., priority 2022, published 2026).

For assay [1], the target named is T1, GppNHp-KRAS G12D mutant protein (Homo sapiens, UniProt P01116, G12D).
T1 construct: purchased Daegu Gyeongbuk Medical Innovation Foundation (DGMIF), made to order
As to the kind of experiment: Differential scanning fluorimetry (DSF) binding affinity to GppNHp-KRAS G12D mutant protein. Particulars: DSF thermal shift, 10 μM compound, 4 μg KRAS protein, 50 mM HEPES (pH 7.5). The method, boiled down:
(§1)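 Thermal shift ΔTm was measured at 10 μM compound over a 25–99 °C ramp (0.05 °C/s), read at 580 nm ex/623 nm em with SYPRO Orange (2×). The protein (4 μg) was preincubated with compound for 30 min at room temperature, in 50 mM HEPES pH 7.5 for GppNHp-KRAS G12D or in kit buffer for GDP-KRAS G12D.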

The target of assay [2] is T2, GDP-KRAS G12D mutant protein (Homo sapiens, UniProt P01116, G12D).
T2 construct: purchased Daegu Gyeongbuk Medical Innovation Foundation (DGMIF), made to order
Kind of assay: Differential scanning fluorimetry (DSF) binding affinity to GDP-KRAS G12D mutant protein. Particulars: DSF thermal shift, 10 μM compound, 4 μg KRAS protein. The method, boiled down: as §1
A general note: Differential scanning fluorimetry follows unfolding on heating by fluorescence.

Assay [3] concerns ERK phosphorylation (pERK) induced by KRAS G12D mutation. As to the kind of experiment: Inhibitory activity against ERK phosphorylation (pERK) induced by KRAS G12D mutation, immunofluorescence assay in AsPC-1 cells. Particulars: Homo sapiens, ASPC1, 3 h drug treatment, pERK (Thr202/Tyr204) signal normalized to DAPI. The format is cell-based. The method, boiled down: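 AsPC-1 cells attached 16 h, then treated 3 h with 3-fold dilutions from 10 μM top. Fixed, permeabilized, immunostained for pERK (Thr202/Tyr204) with Alexa 488 secondary; high-content imaging, signal normalized to DAPI and to DMSO, IC50 from four-parameter fit.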

In assay [4] the test system is KRAS G12D mutant pancreatic cancer cell line AsPC-1. Kind of assay: Cell viability assay using KRAS G12D mutant cells (AsPC-1, 3D culture, celltiter-glo 3D). In kind it is cell-based. The following applies: Homo sapiens, ASPC1, 5th day after compound treatment. The method, then:
Test Example 3: Cell Viability Assay Using KRAS G12D Mutant Cells
The KRAS G12D mutant pancreatic cancer cell line AsPC-1 was obtained from the Korean Cell Line Bank (KCLB) and maintained in 100-mm dishes or T75 (75 cm^2) flasks using RPM11640+10% fetal bovine serum (FBS)+1% Penicillin-Streptomycin medium. The cells were cultured at 37° C. with 5% CO2. The number of viable cells was counted using Countess (Invitrogen).
When AsPC-1 cells reached 85-100% confluence in the flask, the cells were harvested using 1× trypsin/EDTA solution, and seeded into a 96-well plate for 3D culture at 1000 cells/100 μL/well. The next day, the compounds were diluted ⅕ with DMSO from 10 μM or 50 μM to 0.0001 μM or 0.0006 μM and treated 1:1 (v/v) in the plate where the cells were seeded.
Cell culture was terminated on the 5th day after compound treatment, and cell viability at each concentration was measured using the celltiter-glo 3D cell viability assay kit.
Cell viability assays were normalized to 100% for the DMSO-treated group and expressed as a percentage of the number of viable cells when treated with the compound.
Cell viability %=(average RLU of group treated with test substance−average RLU of untreated group)/(average RLU of group treated with DMSO−average RLU of untreated group)×100
The data were modeled using GraphPad Prism 9 (GraphPad Software) by applying a nonlinear regression curve fit with a four-parameter sigmoidal dose-response curve to determine cell viability as a function of compound concentration. The 50% inhibitory concentration (IC50) corresponds to the concentration at which the curve intersects the midpoint of cell viability. The results of the inhibitory effect of the compounds according to one embodiment of the present application on the viability of KRAS G12D mutant cells are presented in Table 4.
For orientation: Cellular ATP, detected with luciferase, serves as a proxy for viable cell number.

For the compound `C#Cc1c(F)ccc2cc(O)cc(-c3cc4nc(OCC5(CN6CCOC[C@H]6C)CC5)nc(N5C[C@H]6CC[C@@H](C5)N6)c4n4ccnc34)c12` [Example 8, 4-(1-((1 R,5S)-3,8-diazabicyclo[3.2.1]octan-3-yl)-3-((1-(((R)-3-methylmorpholino)methyl)cyclopropyl)methoxy)imidazo[1′,2′:1,6]pyrido[3,2-d]pyrimidin-6-yl)-5-ethynyl-6-fluoronaphthalen-2-ol], the “GppNHp-KRAS G12D (ΔTmD, ° C.)” value in assay [1] stood at 3.39 °C. Further, the “GDP-KRAS G12D (ΔTmD, ° C.)” value in assay [2] worked out at 9.02 °C. For the same compound, the IC50 (as a rule, the concentration needed to halve the response being measured) in assay [3] came out at 149 nM; in assay [4], 50 nM.
As to `C#Cc1c(F)ccc2cc(O)cc(-c3cc4nc(OCC5(CN6CCC7(CC6)CC7(F)F)CC5)nc(N5C[C@H]6CC[C@@H](C5)N6)c4n4ccnc34)c12` [Example 9, 4-(1-((1R,5S)-3,8-diazabicyclo[3.2.1]octan-3-yl)-3-((1-((1,1-difluoro-6-azaspiro[2.5]octan-6-yl)methyl)cyclopropyl)methoxy)imidazo[1′,2′:1,6]pyrido[3,2-d]pyrimidin-6-yl)-5-ethynyl-6-fluoronaphthalen-2-ol], in assay [1], the “GppNHp-KRAS G12D (ΔTmD, ° C.)” value is 3.39 °C. In addition, the “GDP-KRAS G12D (ΔTmD, ° C.)” value in assay [2] worked out at 8.87 °C. The IC50 in assay [3] was 165 nM; in assay [4], 50 nM.
The corresponding values for `C#Cc1c(F)ccc2cc(O)cc(-c3cc4nc(OCC5(CN6CCO[C@H](C)C6)CC5)nc(N5C[C@H]6CC[C@@H](C5)N6)c4n4ccnc34)c12` [Example 11, 4-(1-((1R,5S)-3,8-diazabicyclo[3.2.1]octan-3-yl)-3-((1-(((R)-2-methylmorpholino)methyl)cyclopropyl)methoxy)imidazo[1′,2′:1,6]pyrido[3,2-d]pyrimidin-6-yl)-5-ethynyl-6-fluoronaphthalen-2-ol] are 2.49 °C, 9.74 °C, 174 nM and 140 nM.
On to `C#Cc1c(F)ccc2cc(O)cc(-c3cc4nc(OCC5(CN6C[C@@H]7C[C@H]6CO7)CC5)nc(N5C[C@H]6CC[C@@H](C5)N6)c4n4ccnc34)c12` [Example 12, 4-(3-((1-(((1S,4S)-2-oxa-5-azabicyclo[2.2.1]heptan-5-yl)methyl)cyclopropyl)methoxy)-1-((1 R,5S)-3,8-diazabicyclo[3.2.1]octan-3-yl)imidazo[1′,2′:1,6]pyrido[3,2-d]pyrimidin-6-yl)-5-ethynyl-6-fluoronaphthalen-2-ol], for which the “GppNHp-KRAS G12D (ΔTmD, ° C.)” value in assay [1] was found to be 2.65 °C. Besides, the “GDP-KRAS G12D (ΔTmD, ° C.)” value in assay [2] is 9.61 °C. Besides, the IC50 in assay [3] turned out to be 1060 nM; in assay [4], 975 nM.
The corresponding values for `C#Cc1c(F)ccc2cc(N)cc(-c3cc4nc(OC[C@@]56CCCN5C[C@H](F)C6)nc(N5[C@@H]6CC[C@H]5CNC6)c4n4ccnc34)c12` [Example 14, 4-(1-((1R,5S)-3,8-diazabicyclo[3.2.1]octan-8-yl)-3-(((2R,7aS)-2-fluorotetrahydro-1H-pyrrolizin-7a(5H)-yl)methoxy)imidazo[1′,2′:1,6]pyrido[3,2-d]pyrimidin-6-yl)-5-ethynyl-6-fluoronaphthalen-2-amine] are 4.73 °C, 7.98 °C, 75 nM and 53 nM.
On the same counts, the results for `C#Cc1c(F)ccc2cc(O)cc(-c3cc4nc(OCC5(CN6CC[C@@H](F)C6)CC5)nc(N5[C@@H]6CC[C@H]5CNC6)c4n4ccnc34)c12` [Example 16, 4-(1-((1R,5S)-3,8-diazabicyclo[3.2.1]octan-8-yl)-3-((1-(((R)-3-fluoropyrrolidin-1-yl)methyl)cyclopropyl)methoxy)imidazo[1′,2′:1,6]pyrido[3,2-d]pyrimidin-6-yl)-5-ethynyl-6-fluoronaphthalen-2-ol] are 4.27 °C, 9.01 °C, 176 nM and 94 nM.
For the compound `C#Cc1c(F)ccc2cc(O)cc(-c3cc4nc(OC[C@@]56CCCN5C/C(=C\F)C6)nc(N5[C@@H]6CC[C@H]5CNC6)c4n4ccnc34)c12` [Example 23, 4-(1-((1R,5S)-3,8-diazabicyclo[3.2.1]octan-8-yl)-3-(((S,Z)-2-(fluoromethylene)tetrahydro-1H-pyrrolizin-7a(5H)-yl)methoxy)imidazo[1′,2′:1,6]pyrido[3,2-d]pyrimidin-6-yl)-5-ethynyl-6-fluoronaphthalen-2-ol], the “GppNHp-KRAS G12D (ΔTmD, ° C.)” value in assay [1] came out at 6.94 °C. In assay [2], the “GDP-KRAS G12D (ΔTmD, ° C.)” value is 9.90 °C. Further, the IC50 in assay [3] was 25 nM; in assay [4], 24 nM.
On the same counts, the results for `C#Cc1c(F)ccc2cc(O)cc(-c3cc4nc(OC[C@@]56CCCN5C/C(=C\F)C6)nc(N5C[C@H]6CC[C@@H](C5)N6)c4n4ccnc34)c12` [Example 29, 4-(1-((1R,5S)-3,8-diazabicyclo[3.2.1]octan-3-yl)-3-(((S,Z)-2-(fluoromethylene)tetrahydro-1H-pyrrolizin-7a(5H)-yl)methoxy)imidazo[1′,2′:1,6]pyrido[3,2-d]pyrimidin-6-yl)-5-ethynyl-6-fluoronaphthalen-2-ol] are 6.82 °C, 12.01 °C, 15 nM and 19 nM.
The corresponding values for `C#Cc1c(F)ccc2cc(O)cc(-c3cc4nc(OC[C@@]56CCCN5CC(=C(F)F)C6)nc(N5C[C@H]6CC[C@@H](C5)N6)c4n4ccnc34)c12` [Example 37, 4-(1-((1R,5S)-3,8-diazabicyclo[3.2.1]octan-3-yl)-3-(((S)-2-(difluoromethylene)tetrahydro-1H-pyrrolizin-7a(5H)-yl)methoxy)imidazo[1′,2′:1,6]pyrido[3,2-d]pyrimidin-6-yl)-5-ethynyl-6-fluoronaphthalen-2-ol] are 5.76 °C, 11.53 °C, 12 nM and 29 nM.
On the same counts, the results for `C#Cc1c(F)ccc2cc(N)cc(-c3cc4nc(OC[C@@]56CCCN5C/C(=C\F)C6)nc(N5[C@@H]6CC[C@H]5CNC6)c4n4ccnc34)c12` [Example 38, 4-(1-((1R,5S)-3,8-diazabicyclo[3.2.1]octan-8-yl)-3-(((S,Z)-2-(fluoromethylene)tetrahydro-1H-pyrrolizin-7a(5H)-yl)methoxy)imidazo[1′,2′:1,6]pyrido[3,2-d]pyrimidin-6-yl)-5-ethynyl-6-fluoronaphthalen-2-amine] are 6.65 °C, 9.61 °C, 15 nM and 12 nM.
Consider `C#Cc1c(F)ccc2cc(O)cc(-c3cc4nc(OC[C@]56CC(=C)CN5C[C@@H](F)C6)nc(N5CC6CCC(C5)N6)c4n4ccnc34)c12` [Example 39, 4-(1-((1R,5S)-3,8-diazabicyclo[3.2.1]octan-8-yl)-3-(((2S,7aR)-2-fluoro-6-methylenetetrahydro-1H-pyrrolizin-7a(51H)-yl)methoxy)imidazo[1′,2′:1,6]pyrido[3,2-d]pyrimidin-6-yl)-5-ethynyl-6-fluoronaphthalen-2-ol], for which, in assay [1], the “GppNHp-KRAS G12D (ΔTmD, ° C.)” value turned out to be 5.61 °C. Also, the “GDP-KRAS G12D (ΔTmD, ° C.)” value in assay [2] was 8.87 °C. In addition, the IC50 in assay [3] was 76 nM; in assay [4], 91 nM.
As to `Cc1cc2c(o1)c(-c1cc(O)cc3ccccc13)cc1nc(OC[C@@]34CCCN3C[C@H](F)C4)nc(N3C[C@H]4CC[C@@H](C3)N4)c12` [Example 41, 4-(1-((1R,5S)-3,8-diazabicyclo[3.2.1]octan-3-yl)-3-(((2R,7aS)-2-fluorotetrahydro-1H-pyrrolizin-7a(5H)-yl)methoxy)-8-methylfuro[3,2-f]quinazolin-6-yl)naphthalen-2-ol], in assay [1], the “GppNHp-KRAS G12D (ΔTmD, ° C.)” value was 0.87 °C. For the same compound, in assay [2], the “GDP-KRAS G12D (ΔTmD, ° C.)” value was found to be 5.46 °C. The IC50 came out at 899 nM in assay [3] and 1020 nM in assay [4].
